From patent US20110201620A1, “2-(3-AMINOARYL) AMINO-4-ARYL-THIAZOLES AND THEIR USE AS C-KIT INHIBITORS” (AB SCIENCE, priority 2002, published 2011)

Assay: Phase 2 clinical trial in advanced GIST, safety assessment
Assay type: in vivo, human
From the text: Methods; Patients: Patients enrolled in this study were aged over 18 years with inoperable, non-pretreated, histologically proven locally advanced or metastatic, c-Kit positive GIST. […] Exclusion criteria included: inadequate organ function defined via blood tests, severe liver or cardiac failure, and severe neurological or psychiatric disorders. Patients receiving a concomitant treatment within 4 weeks before inclusion, and pregnant or lactating women were also excluded. […] All adverse events (AEs), including abnormal serology or haematology, were recorded regardless of causality.

[1] = N = 30, Suspected: treatment related or not assessable

Cc1ccc(NC(=O)c2ccc(CN3CCN(C)CC3)cc2)cc1Nc1nc(-c2cccnc2)cs1 [Compound 066, 4-(4-methyl-piperazin-1-ylmethyl)-N-[4-methyl-3-(4-pyridin-3-yl-thiazol-2-ylamino)-phenyl]-benzamide]
patients reporting one grade 4 AE (skin exfoliation) (1/30 patient): 3.3%
patients with treatment interruption for treatment-related haematological toxicity (1/30 patient): 3%
patients with grade 3 treatment-related rash (3/30 patients): 10%
patients experiencing serious adverse events (SAE) (8/30 patients): 27%
patients with treatment interruption for non-haematological AEs (13/30 patients): 43%
patients with at least one grade 3 treatment-related AE (14/30 patients): 47%
patients with treatment interruption for more than 8 days (16/30 patients): 53.3%
patients with treatment-related oedemas (all types) (21/30 patients): 70%
patients reporting at least one treatment-related AE (ITT population): All patients
treatment-related toxicity per patient: abdominal pain (ITT population): 33%
treatment-related toxicity per patient: asthenia (ITT population): 83%
treatment-related toxicity per patient: cutaneous rash (ITT population): 40%
treatment-related toxicity per patient: diarrhoea (ITT population): 57%
treatment-related toxicity per patient: eye oedema (ITT population): 47%
treatment-related toxicity per patient: muscle spasms (ITT population): 40%
treatment-related toxicity per patient: nausea (ITT population): 47%
treatment-related toxicity per patient: peripheral oedema (ITT population): 20%
treatment-related toxicity per patient: pruritus (ITT population): 33%
treatment-related toxicity per patient: upper abdominal pain (ITT population): 23%
treatment-related toxicity per patient: vomiting (ITT population): 23%
Abdominal Pain Upper, All causalities, All grades (N = 30): 9 (30.0%) Number (%) of patients
Abdominal Pain, All causalities, All grades (N = 30): 16 (53.3%) Number (%) of patients
Abdominal Pain, All causalities, G3 + G4 (N = 30): 2 (6.7%) Number (%) of patients
Anaemia, All causalities, All grades (N = 30): 6 (20.0%) Number (%) of patients
Anaemia, All causalities, G3 + G4 (N = 30): 1 (3.3%) Number (%) of patients
Asthenia, All causalities, All grades (N = 30): 27 (90.0%) Number (%) of patients
Asthenia, All causalities, G3 + G4 (N = 30): 1 (3.3%) Number (%) of patients
Diarrhoea, All causalities, All grades (N = 30): 18 (60.0%) Number (%) of patients
Diarrhoea, All causalities, G3 + G4 (N = 30): 1 (3.3%) Number (%) of patients
Dry Skin, All causalities, All grades (N = 30): 4 (13.3%) Number (%) of patients
Erythema, All causalities, All grades (N = 30): 6 (20.0%) Number (%) of patients
Eye Oedema, All causalities, All grades (N = 30): 14 (46.7%) Number (%) of patients
Eye Oedema, All causalities, G3 + G4 (N = 30): 1 (3.3%) Number (%) of patients
Eyelid Oedema, All causalities, All grades (N = 30): 7 (23.3%) Number (%) of patients
Lacrimation Increased, All causalities, All grades (N = 30): 4 (13.3%) Number (%) of patients
Mucosal Inflammation, All causalities, All grades (N = 30): 5 (16.7%) Number (%) of patients
Mucosal Inflammation, All causalities, G3 + G4 (N = 30): 1 (3.3%) Number (%) of patients
Muscle Spasms, All causalities, All grades (N = 30): 12 (40.0%) Number (%) of patients
Myalgia, All causalities, All grades (N = 30): 4 (13.3%) Number (%) of patients
Nausea, All causalities, All grades (N = 30): 15 (50.0%) Number (%) of patients
Neutropenia, All causalities, All grades (N = 30): 5 (16.7%) Number (%) of patients
Neutropenia, All causalities, G3 + G4 (N = 30): 2 (6.7%) Number (%) of patients
Oedema Peripheral, All causalities, All grades (N = 30): 8 (26.7%) Number (%) of patients
Pruritus, All causalities, All grades (N = 30): 11 (36.7%) Number (%) of patients
Pruritus, All causalities, G3 + G4 (N = 30): 1 (3.3%) Number (%) of patients
Rash, All causalities, All grades (N = 30): 12 (40.0%) Number (%) of patients
Rash, All causalities, G3 + G4 (N = 30): 3 (10.0%) Number (%) of patients
Vomiting, All causalities, All grades (N = 30): 10 (33.3%) Number (%) of patients
Abdominal Pain Upper, Suspected, All grades [1]: 7 (23.3%) Number (%) of patients
Abdominal Pain, Suspected, All grades [1]: 10 (33.3%) Number (%) of patients
Abdominal Pain, Suspected, G3 + G4 [1]: 1 (3.3%) Number (%) of patients
Anaemia, Suspected, All grades [1]: 4 (13.3%) Number (%) of patients
Anaemia, Suspected, G3 + G4 [1]: 1 (3.3%) Number (%) of patients
Asthenia, Suspected, All grades [1]: 25 (83.3%) Number (%) of patients
Asthenia, Suspected, G3 + G4 [1]: 1 (3.3%) Number (%) of patients
Diarrhoea, Suspected, All grades [1]: 17 (56.7%) Number (%) of patients
Diarrhoea, Suspected, G3 + G4 [1]: 1 (3.3%) Number (%) of patients
Dry Skin, Suspected, All grades [1]: 4 (13.3%) Number (%) of patients
Erythema, Suspected, All grades [1]: 5 (16.7%) Number (%) of patients
Eye Oedema, Suspected, All grades [1]: 14 (46.7%) Number (%) of patients
Eye Oedema, Suspected, G3 + G4 [1]: 1 (3.3%) Number (%) of patients
Eyelid Oedema, Suspected, All grades [1]: 7 (23.3%) Number (%) of patients
Lacrimation Increased, Suspected, All grades [1]: 4 (13.3%) Number (%) of patients
Mucosal Inflammation, Suspected, All grades [1]: 5 (16.7%) Number (%) of patients
Mucosal Inflammation, Suspected, G3 + G4 [1]: 1 (3.3%) Number (%) of patients
Muscle Spasms, Suspected, All grades [1]: 12 (40.0%) Number (%) of patients
Myalgia, Suspected, All grades [1]: 4 (13.3%) Number (%) of patients
Nausea, Suspected, All grades [1]: 14 (46.7%) Number (%) of patients
Neutropenia, Suspected, All grades [1]: 5 (16.7%) Number (%) of patients
Neutropenia, Suspected, G3 + G4 [1]: 2 (6.7%) Number (%) of patients
Oedema Peripheral, Suspected, All grades [1]: 6 (20.0%) Number (%) of patients
Pruritus, Suspected, All grades [1]: 10 (33.3%) Number (%) of patients
Pruritus, Suspected, G3 + G4 [1]: 1 (3.3%) Number (%) of patients
Rash, Suspected, All grades [1]: 12 (40.0%) Number (%) of patients
Rash, Suspected, G3 + G4 [1]: 3 (10.0%) Number (%) of patients
Vomiting, Suspected, All grades [1]: 7 (23.3%) Number (%) of patients
cardiac side-effects (human, in vivo): no cardiac side-effects have been observed
total number of serious adverse events (SAE) (in 8/30 patients): 14
patients with dose reduced by 100 or 200 mg/day following grade 3-4 AEs (six patients): 20%
number of treatment-related SAE (worsening of a concomitant psoriasis and anaemia): three
